Test results from patent US20250057849A1, “ANTIVIRAL COMPOSITION COMPRISING NUCLEOSIDE ANALOGUES DERIVED FROM NUCLEIC ACID AND PHARMACEUTICALLY ACCEPTABLE SALT THEREOF” (CJ CheilJedang Corporation, priority 2021, published 2025).
pIC50: −log10 of the molar value. Like-named read-outs stand apart in the source and are kept apart here.

Columns and labels:
IBV = experiment: microbe, parasite or virus in culture; format: cell-based, Avian Infectious Bronchitis virus; settings: for pIC50: read-out: IBV infection inhibition concentration IC50; for SI (selectivity index), IBV: CC50/IC50
NDV = experiment: microbe, parasite or virus in culture; format: cell-based, Avian Newcastle Disease virus; settings: for pIC50: read-out: NDV infection inhibition concentration IC50; for SI (selectivity index), NDV: CC50/IC50
in vitro = settings: monkey
PCV2 = PCV2 infection inhibition in PK15 cells (qPCR); format: cell-based, Porcine Circovirus Type 2; settings: for SI (selectivity index), PCV2: CC50/IC50; for pIC50: Porcine circovirus 2, PK-15, 96 h, PK15 cells, 200 TCID50/well PCV2, after 4 days, read-out: PCV2 infection inhibition concentration IC50
Description: For the isolated DNA, using PCV2-specific primers (F-[…] , R-[…] ) and realtime RT-qPCR experimental method (95° C., 30 seconds 1 cycle, 95° C., 20 seconds, 56° C., 60 seconds 40 cycles), the antiviral efficacy of the materials was verified.

[1] = Cytotoxicity (WST-1 / DAPI staining), PRRSV test cells; settings: monkey, Marc-145 cells (monkey kidney)
[2] = test system: PRRSV (NA type, VR-2332 strain); experiment: PRRSV infection inhibition in Marc-145 cells (immunofluorescence staining); format: cell-based, Porcine Reproductive and Respiratory Syndrome virus; settings: for SI (selectivity index), PRRSV: CC50/IC50; for pIC50: Porcine reproductive and respiratory syndrome virus, MARC145, 72 h, Marc-145 cells, 100 TCID50/ml PRRSV, three days after treatment, read-out: PRRSV infection inhibition concentration IC50
[3] = Cytotoxicity, MDBK cell tests; settings: bovine, MDBK cells
CPV = CPV infection inhibition in MDCK cells (qPCR); format: cell-based, Canine Parvovirus; settings: for SI (selectivity index), CPV: CC50/IC50; for pIC50: 96 h, MDCK cells, 200 TCID50/well CPV, after 4 days, read-out: CPV infection inhibition concentration IC50 (Table 10)
Description: For the isolated DNA, using CPV-specific primers (F-[…] , R-[…] ) and realtime RT-qPCR experimental method (95° C., 5 minutes 1 cycle, 95° C., 10 seconds, 60° C., 30 seconds, 40 cycles), the antiviral efficacy of the materials was confirmed.

[4] = Cytotoxicity, MDCK cell tests; settings: dog, MDCK cells
MDCK cell line = experiment: Cytotoxicity, MDCK cell tests; settings: read-out: CC50 (Table 10, CPV); cytotoxicity
BRV = BRV infection inhibition in MDBK cells (RT-qPCR); format: cell-based, Bovine Rotavirus; settings: for SI (selectivity index), BRV: CC50/IC50; for pIC50: Rotavirus A, 96 h, MDBK cells, 200 TCID50/well BRV, after 4 days, read-out: BRV infection inhibition concentration IC50
Description: The next day, BRV of 200 TCID50/well and inosine, xanthosine and guanosine in the dialdehyde and acyclic diol forms were treated to the cells simultaneously, and after 4 days, using commercialized Viral gene (DNA/RNA) extraction kit (iNtRON, 101410754), RNA was isolated.
For the isolated RNA, using BRV-specific primers (F-[…] , R-[…] ) and realtime RT-qPCR experimental method (95° C., 10 minutes 1 cycle, 95° C., 15 seconds, 60° C., 15 seconds, 72° C., 20 seconds 40 cycles), the antiviral efficacy of the materials was confirmed.

[5] = test system: Swine Influenza virus (SIV); experiment: organism not typed; format: cell-based; settings: for SI (selectivity index), SIV: CC50/IC50; for pIC50: MDCK, 96 h, read-out: SIV infection inhibition concentration IC50
Vero cell line = settings: monkey
[6] = Cytotoxicity, PK15 cell test; settings: pig, PK15 cells
[7] = test system: PEDV (G1a type, SM98 strain); experiment: PEDV infection inhibition in Vero cells (PEDV detection kit on isolated RNA); format: cell-based, Porcine Epidemic Diarrhea virus; settings: for SI (selectivity index), PEDV: CC50/IC50; for pIC50: Porcine epidemic diarrhea virus, 48 h, Vero cells, 200 TCID50/ml PEDV, after 2 days, read-out: PEDV infection inhibition concentration IC50
Description: The next day, PEDV (G1a type, SM98 strain) of 200 TCID50/ml and inosine, xanthosine and guanosine in the dialdehyde and acyclic diol forms were treated to the cells simultaneously, and after 2 days, using commercialized Viral gene (DNA/RNA) extraction kit (iNtRON, 101410754), RNA was isolated. For the isolated RNA, using commercialized PEDV detection kit (Mediandiagnostics, NS-PED-31), the antiviral efficacy of the materials was verified.

PRV = experiment: microbe, parasite or virus in culture; format: cell-based, Porcine Rotavirus; settings: for SI (selectivity index), PRV: CC50/IC50; for pIC50: Rotavirus C, Vero, 72 h, read-out: PRV infection inhibition concentration IC50
MDBK cell line = experiment: Cytotoxicity, MDBK cell tests; settings: read-out: CC50 (Table 9, BRV); cytotoxicity
BVDV = BVDV infection inhibition in MDBK cells (RT-qPCR); format: cell-based, Bovine Viral Diarrhea virus
Description: The next day, BVDV of 200 TCID50/well and inosine, xanthosine and guanosine in the dialdehyde and acyclic diol forms were treated to the cells simultaneously, and after 4 days, using commercialized Viral gene (DNA/RNA) extraction kit (iNtRON, 101410754), RNA was isolated.
For the isolated RNA, using BVDV-specific primers (F-[…] , R-[…] ) and realtime RT-qPCR experimental method (94° C., 10 minutes 1 cycle, 94° C., 10 seconds, 53° C., 20 seconds, 72° C., 30 seconds 35 cycles), the antiviral efficacy of the materials was verified.

[8] = avian paramyxovirus 1, Vero, 72 h

Compound “dialdehyde form of inosine [Dialdehyde-inosine]” has a pIC50 (IBV; Vero cells, 200 TCID50/well IBV, after 4 days) of 4.12 and a pIC50 (NDV; Vero cells, 200 TCID50/well NDV, after 3 days) of 3.33.

In the case of `O=c1[nH]c(=O)c2ncn([C@@H](CO)OC(CO)CO)c2[nH]1` [Acyclic diol-xanthosine, acyclic diol form of xanthosine], the CC50 (in vitro) was greater than 10000 µM, the “SI (selectivity index), PCV2” value (PCV2) was greater than 10.1 and the pIC50 (PCV2) was 3.00. For the same compound, the CC50 [1] was greater than 8000 µM, the “SI (selectivity index), PRRSV” value [2] was greater than 20 and the pIC50 [2] was 3.40. The CC50 [3] was greater than 10000 µM, the “SI (selectivity index), CPV” value (CPV) was greater than 4.6 and the pIC50 (CPV; Canine parvovirus) was 2.66. For the same compound, the CC50 [4] was greater than 10000 µM, the CC50 (MDCK cell line) was greater than 10000 µM and the “SI (selectivity index), BRV” value (BRV) was greater than 6.4. For the same compound, the pIC50 (BRV) was 2.81, the “SI (selectivity index), SIV” value [5] was greater than 1.5 and the pIC50 [5] was 2.17. For the same compound, the CC50 (Vero cell line) was greater than 10000 µM, the CC50 [6] was greater than 10000 µM and the “SI (selectivity index), PEDV” value [7] was greater than 4.4. For the same compound, the pIC50 [7] was 2.64, the inhibition at 8000 µM (NDV; avian paramyxovirus 1, Vero, read-out: NDV infection inhibition efficacy) was 39.4% and the “SI (selectivity index), PRV” value (PRV) was greater than 2.9. It also gave a pIC50 (PRV) of 2.47.

With `Nc1nc2c(ncn2[C@@H](CO)OC(CO)CO)c(=O)[nH]1` [Acyclic diol-guanosine, acyclic diol form of guanosine] the CC50 (in vitro) was greater than 10000 µM, the “SI (selectivity index), PCV2” value (PCV2) was greater than 4.3 and the pIC50 (PCV2) was 2.63. For the same compound, the CC50 [1] was greater than 8000 µM, the “SI (selectivity index), PRRSV” value [2] was greater than 17.5 and the pIC50 [2] was 3.34. The CC50 [3] was greater than 10000 µM, the inhibition at 8000 µM (CPV; Canine parvovirus, MDCK, at 8000 μM, read-out: CPV infection inhibition efficacy) was 18% and the “CPV virus titer reduction efficacy” value (CPV; at 8000 μM) was no less than 1 log10. For the same compound, the CC50 [4] was greater than 10000 µM, the “SI (selectivity index), BRV” value (BRV) was greater than 5.7 and the pIC50 (BRV) was 2.75. The “SI (selectivity index), SIV” value [5] was greater than 2.1, the pIC50 [5] was 2.32 and the CC50 (Vero cell line) was greater than 10000 µM. For the same compound, the CC50 [6] was greater than 10000 µM, the “SI (selectivity index), PEDV” value [7] was greater than 5.6 and the pIC50 [7] was 2.75. For the same compound, the pIC50 (IBV; Avian coronavirus, Vero, 96 h) was 2.75, the “SI (selectivity index), IBV” value (IBV) was greater than 5.6 and the “SI (selectivity index), NDV” value (NDV) was greater than 1.5. For the same compound, the pIC50 (NDV; [8]) was 2.17, the “SI (selectivity index), PRV” value (PRV) was greater than 2.9 and the pIC50 (PRV) was 2.47.

For `O=c1[nH]cnc2c1ncn2[C@@H](CO)OC(CO)CO` [Acyclic diol-inosine, acyclic diol form of inosine], the CC50 (in vitro) was greater than 10000 µM, the “SI (selectivity index), PCV2” value (PCV2) was greater than 12.9 and the pIC50 (PCV2) was 3.11. For the same compound, the CC50 [1] was greater than 8000 µM, the “SI (selectivity index), PRRSV” value [2] was greater than 17.6 and the pIC50 [2] was 3.34. For the same compound, the CC50 [3] was greater than 10000 µM, the “SI (selectivity index), CPV” value (CPV) was greater than 4.6 and the pIC50 (CPV; Canine parvovirus) was 2.66. The CC50 [4] was greater than 10000 µM, the CC50 (MDCK cell line) was greater than 10000 µM and the “SI (selectivity index), BRV” value (BRV) was greater than 5.2. For the same compound, the pIC50 (BRV) was 2.71, the “SI (selectivity index), SIV” value [5] was greater than 1.6 and the pIC50 [5] was 2.21. For the same compound, the CC50 (Vero cell line) was greater than 10000 µM, the CC50 [6] was greater than 10000 µM and the “SI (selectivity index), PEDV” value [7] was greater than 3.6. The pIC50 [7] was 2.56, the pIC50 (IBV; Avian coronavirus, Vero, 96 h) was 2.57 and the “SI (selectivity index), IBV” value (IBV) was greater than 3.8. The “SI (selectivity index), NDV” value (NDV) was greater than 2.3, the pIC50 (NDV; [8]) was 2.35 and the “SI (selectivity index), PRV” value (PRV) was greater than 3.5. The pIC50 (PRV) was 2.55.

In the case of `O=C[C@@H](CO)O[C@H](C=O)n1cnc2c(=O)[nH]cnc21` [Dialdehyde-inosine, dialdehyde form of inosine], the CC50 (in vitro) was greater than 10000 µM, the “SI (selectivity index), PCV2” value (PCV2) was greater than 12.2 and the pIC50 (PCV2) was 3.09. For the same compound, the CC50 [1] was greater than 10000 µM, the “SI (selectivity index), PRRSV” value [2] was greater than 105.3 and the pIC50 [2] was 4.02. The CC50 [3] was greater than 10000 µM, the CC50 (MDBK cell line) was greater than 10000 µM and the “SI (selectivity index), CPV” value (CPV) was greater than 5.9. For the same compound, the pIC50 (CPV; Canine parvovirus) was 2.77, the CC50 [4] was greater than 10000 µM and the CC50 (MDCK cell line) was greater than 10000 µM. The “SI (selectivity index), BRV” value (BRV) was greater than 93.8, the pIC50 (BRV) was 3.97 and the “SI (selectivity index), SIV” value [5] was greater than 18.1. For the same compound, the pIC50 [5] was 3.26, the CC50 (Vero cell line) was greater than 10000 µM and the CC50 [6] was greater than 10000 µM. The “SI (selectivity index), PEDV” value [7] was greater than 22.3, the pIC50 [7] was 3.35 and the pIC50 (BVDV; Bovine viral diarrhea virus isolates and strains, 96 h, MDBK cells, 200 TCID50/well BVDV, after 4 days, read-out: BVDV infection inhibition concentration IC50) was 3.96. For the same compound, the “SI (selectivity index), BVDV” value (BVDV; CC50/IC50) was greater than 90.8, the pIC50 (IBV; Avian coronavirus, Vero, 96 h) was 4.12 and the “SI (selectivity index), IBV” value (IBV) was greater than 130. For the same compound, the “SI (selectivity index), NDV” value (NDV) was greater than 21.3, the pIC50 (NDV; [8]) was 3.33 and the “SI (selectivity index), PRV” value (PRV) was greater than 103.5. For the same compound, the pIC50 (PRV) was 4.02.
